# Experimental data taken from patent publication US8389514B2, “Cyanoaminoquinolones and tetrazoloaminoquinolones as GSK-3 inhibitors” (Kyorin Pharmaceutical Co., Ltd., priority 2007, dated 2013).
# Tests used:
# [1] = target: T1, recombinant full-length human GSK3β (Homo sapiens, UniProt P49841); experiment: GSK3β enzyme cell free luciferase-coupled kinase assay; format: biochemical; details: 5 μM ATP
# T1 construct: recombinant full-length human GSK3β (Upstate); purchased Upstate
# Procedure: All coupled-luciferase assays are performed by using a brief incubation with firefly luciferase (Promega) after completion of the kinase assay. KinaseGlo Plus is used for reading kinase reactions with ATP>10 μM, KinaseGlo for ATP<10 μM. The assay volume in a 384-well plate for the kinase reaction is 30 microliters.
# 10-25 ng of recombinant full-length human GSK3β (Upstate) is incubated in the presence or absence of compound at varying concentrations for 1 hour at 30 degrees Celsius in 20 mM MOPS, pH 7.0, 10 mM magnesium acetate, 0.2 mM EDTA, 2 mM EGTA, 30 mM magnesium chloride, 62.5 μM phospho-glycogen synthase peptide-2, 5 μM ATP, 10 mM β-glycerol phosphate, 1 mM sodium orthovanadate and 1 mM dithiothreitol. Proceed to KinaseGlo luciferase reaction (see below).
# Following the completion of the kinase reaction an equal volume of KinaseGlo or KinaseGlo Plus luciferase reagent (Promega) is added and the luminescence read using a luminescence plate reader within 5-10 minutes. Compound activity is expressed as % inhibition relative to maximal inhibition observed at the maximal dose and IC50 values then calculated using curve fitting software (GraphPad Prizm).
# [2] = test system: E. coli, ATCC8739; experiment: Antibacterial activity (MIC), E. coli; format: cell-based; details: Escherichia coli
# Excerpt: (§1) As used herein, a minimum inhibitory concentration (MIC) for bacterial growth assay is the lowest level of a compound needed to cause an inhibition to bacterial growth in culture medium. In certain embodiments, the antibacterial activity of compounds herein, measured as MIC.
# (§2) In certain embodiments, GSK3 inhibitors provided herein are substantially free of antibacterial activity or having very low antibacterial activity. The antibacterial activity can be measured by methods known in the art by estimating a minimum inhibitory concentration (MIC) for test compounds. A MIC is the lowest level of a compound needed to cause an inhibition to bacterial growth in a culture medium. […] (Clinical and Laboratory Standards Institute. Methods for Dilution Antimicrobial Susceptibility Tests for Bacteria That Grow Aerobically; Approved Standard-Sixth Edition: CLSI document […]. CLSI, Wayne, Pa. (2003))
# (§3) Antibacterial activity for E. coli, ATCC8739 and S. aures Smith is expressed as MIC (μM).
# [3] = test system: S. aureus Smith; experiment: Antibacterial activity (MIC), S. aureus Smith; format: cell-based; details: Staphylococcus aureus
# Excerpt: as §1, §2, §3
# T1 sequence (P49841 whole entry): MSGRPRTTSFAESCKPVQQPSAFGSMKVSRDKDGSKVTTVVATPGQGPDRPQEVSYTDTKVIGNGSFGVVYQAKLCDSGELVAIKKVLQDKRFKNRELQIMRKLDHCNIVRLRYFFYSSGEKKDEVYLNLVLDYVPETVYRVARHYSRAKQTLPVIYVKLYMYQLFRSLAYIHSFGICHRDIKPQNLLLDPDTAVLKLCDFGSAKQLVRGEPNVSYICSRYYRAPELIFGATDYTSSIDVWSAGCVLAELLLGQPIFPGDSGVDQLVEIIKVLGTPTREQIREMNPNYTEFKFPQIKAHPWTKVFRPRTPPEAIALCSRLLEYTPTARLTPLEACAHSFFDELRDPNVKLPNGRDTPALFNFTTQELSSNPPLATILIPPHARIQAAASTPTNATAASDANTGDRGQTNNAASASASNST
IC50 [1] [nM],Compound,MIC [2] [µM],MIC [3] [µM]
10 to 100,CCN(CCCNc1c(F)c(N)c2c(=O)c(-c3nnn[nH]3)cn3c2c1OC[C@@H]3C)c1ccccc1,–,–
< 10,C[C@H]1COc2c(NCCCc3ccccn3)c(F)c(N)c3c(=O)c(-c4nnn[nH]4)cn1c23,–,–

Compound,IC50 [1] [nM],MIC [2] [µM],MIC [3] [µM]
C[C@H]1COc2c(NCCCn3ccnc3)c(F)c(N)c3c(=O)c(-c4nnn[nH]4)cn1c23,10 to 100,> 257,> 257
